# Laboratory results reported in ChEMBL document CHEMBL4373726, “Novel amides modified rupestonic acid derivatives as anti-influenza virus reagents” (Bioorg Med Chem Lett, 2019).
# Key:
# Influenza A virus = assay: Antiviral activity against Influenza A virus H1N1 infected in dog MDCK cells assessed as inhibition in virus-induced cytopathic effect incubated for 40 hrs; format: functional, organism-based
# [1] = Selectivity index, ratio of TC50 for cytotoxicity against dog MDCK cells to IC50 for antiviral activity against Influenza A virus H1N1 infected in dog MDCK cells; format: toxicity, cell-based; settings: read-out: Selectivity Index
# Influenza A virus H3N2 = assay: Antiviral activity against Influenza A virus H3N2 infected in dog MDCK cells assessed as inhibition in virus-induced cytopathic effect incubated for 40 hrs; format: functional, organism-based
# Influenza B virus = assay: Antiviral activity against Influenza B virus infected in MDCK cells assessed as inhibition in virus-induced cytopathic effect incubated for 40 hrs; format: functional, organism-based
# [2] = Cytotoxicity against MDCK cells assessed as reduction in cell viability incubated for 48 hrs; format: cell-based, Canis lupus familiaris; settings: dog, read-out: TC50
# [3] = Selectivity index, ratio of TC50 for cytotoxicity against dog MDCK cells to IC50 for antiviral activity against Influenza A virus H3N2 infected in dog MDCK cells; format: toxicity, cell-based; settings: read-out: Selectivity Index
# [4] = Selectivity index, ratio of TC50 for cytotoxicity against dog MDCK cells to IC50 for antiviral activity against Influenza B virus infected in dog MDCK cells; format: toxicity, cell-based; settings: read-out: Selectivity Index
Structure (SMILES),IC50 (Influenza A virus) [µM],selectivity ratio [1],IC50 (Influenza A virus H3N2) [µM],IC50 (Influenza B virus) [µM],CC50 at 48 h [2] [µM],selectivity ratio [3],selectivity ratio [4]
C=C(C(=O)OC)[C@@H]1CC[C@H](C)[C@@H]2CC(=O)C(C)=C2C1,72.7,3,> 71.8,> 71.1,,,
C=C(C(=O)NCc1ccc(B(O)O)cc1)[C@@H]1CC[C@H](C)[C@@H]2CC(=O)C(C)=C2C1,85.4,3.3,65.9,80,262,4,3.3
C=C(C(=O)Nc1ncc(B(O)O)cn1)[C@@H]1CC[C@H](C)[C@@H]2CC(=O)C(C)=C2C1,96,3.3,87.4,135,315,3.6,2.4
C=C(C(=O)Nc1ccc2c(c1)COB2O)[C@@H]1CC[C@H](C)[C@@H]2CC(=O)C(C)=C2C1,> 49.1,,> 49.1,> 49.1,254,,
C=C(C(=O)NCc1cccc(B(O)O)c1)[C@@H]1CC[C@H](C)[C@@H]2CC(=O)C(C)=C2C1,43.3,6,63.5,90.3,252,4,2.8
C=C(C(=O)OC)[C@@H]1CC[C@H](C)[C@H]2C(=C(C)C(=O)[C@H]2NC(=O)C(C)CCl)C1 (some centres not stated),> 422,,422,> 422,735,1.7,
C=C(C(=O)OC)[C@@H]1CC[C@H](C)[C@H]2C(=C(C)C(=O)[C@H]2NS(=O)(=O)c2ccc(F)cc2)C1,8.1,3,10.2,14.7,25.1,2.5,1.7
C=C(C(=O)OC)[C@@H]1CC[C@H](C)[C@H]2C(=C(C)C(=O)[C@H]2NS(C)(=O)=O)C1,40.5,5.6,52.4,40.3,226,4.3,5.6
C=C(C(=O)Nc1ccc(B(O)O)cc1)[C@@H]1CC[C@H](C)[C@@H]2CC(=O)C(C)=C2C1,> 452,,> 452,> 451,939,,
C=C(C(=O)Nc1cccc(B(O)O)c1)[C@@H]1CC[C@H](C)[C@@H]2CC(=O)C(C)=C2C1,129,4.9,146,147,632,5.3,4.3
C=C(C(=O)OC)[C@@H]1CC[C@H](C)[C@H]2C(=C(C)C(=O)[C@H]2NC(=O)c2ccccc2)C1,38.4,2.2,> 16.5,43.8,84.3,,1.9
C=C(C(=O)OC)[C@@H]1CC[C@H](C)[C@H]2C(=C(C)C(=O)[C@H]2NC(C)=O)C1,174,4.9,> 175,522,753,,1.7
C=C(C(=O)OC)[C@@H]1CC[C@H](C)[C@H]2C(=C(C)C(=O)[C@H]2NC(=O)CNC(=O)c2ccccc2)C1,101,4.9,> 114,> 114,488,,
C=C(C(=O)OC)[C@@H]1CC[C@H](C)[C@H]2C(=C(C)C(=O)[C@H]2NC(=O)c2ccc(B(O)O)cc2)C1,44.6,4.3,> 44.5,> 44.2,188,,
C=C(C(=O)OC)[C@@H]1CC[C@H](C)[C@H]2C(=C(C)C(=O)[C@H]2NC(=O)CC#N)C1,485,3,> 485,484,1450,,3
C=C(C(=O)OC)[C@@H]1CC[C@H](C)[C@H]2C(=C(C)C(=O)[C@H]2NS(=O)(=O)c2ccc(C)cc2)C1,14.5,4.3,> 14.9,14.1,61.1,,4.3
CCOC(=O)C1=C[C@@H](OC(CC)CC)[C@H](NC(C)=O)[C@@H](N)C1 [OSELTAMIVIR],15.6,,11.3,> 488,1410,132,
C=C(C(=O)O)[C@@H]1CC[C@H](C)[C@@H]2CC(=O)C(C)=C2C1 [PECHUELOIC ACID],,4.3,,,,4.3,10
NC(=O)c1ncn([C@@H]2O[C@H](CO)[C@@H](O)[C@H]2O)n1 [RIBAVIRIN],8.5,363,10.6,8,,476,714
